Like-named read-outs stand apart in the source and are kept apart here.
B1: IL-27: cytokine of the panel of T cell survival and/or proliferation cytokines (protein, UniProt Q8NEV9 29-243; Q14213 21-229, looked up)
Interleukin-27 subunit alpha: FPRPPGRPQLSLQELRREFTVSLHLARKLLSEVRGQAHRFAESHLPGVNLYLLPLGEQLPDVSLTFQAWRRLSDPERLCFISTTLQPFHALLGGLGTQGRWTNMERMQLWAMRLDLRDLQRHLRFQVLAAGFNLPEEEEEEEEEEEEERKGLLPGALGSALQGPAQVSWPQLLSTYRLLHSLELVLSRAVRELLLLSKAGHSVWPLGFPTLSPQP
Interleukin-27 subunit beta: RKGPPAALTLPRVQCRASRYPIAVDCSWTLPPAPNSTSPVSFIATYRLGMAARGHSWPCLQQTPTSTSCTITDVQLFSMAPYVLNVTAVHPWGSSSSFVPFITEHIIKPDPPEGVRLSPLAERQLQVQWEPPGSWPFPEIFSLKYWIRYKRQGAARFHRVGPIEATSFILRAVRPRARYYVQVAAQDLTDYGELSDWSLPATATMSLGK
B2: IL-7: recombinant mouse IL-7 (Peprotech) (protein, UniProt P10168 26-154, looked up)
Interleukin-7: ECHIKDKEGKAYESVLMISIDELDKMTGTDSNCPNNEPNFFRKHVCDDTKEAAFLNRAARKLKQFLKMNISEEFNVHLLTVSQGTQTLVNCTSKEEKNVKEQKKNDACFLKRLLREIKTCWNKILKGSI

Experiments:
human T cells = experiment: ConA-induced activation and expansion of human T cells (high-throughput screen); format: cell-based; conditions: for EC50: T-cell, 168 h, read-out: EC50-T cells
[1] = tested on: A2780 ovarian cancer cells; experiment: Molecular screening of compounds on A2780 cell proliferation (resazurin fluorescence); format: cell-based, human; conditions: for EC50: Homo sapiens, A2780 cells cultured 3 days (72 hrs), from normalized percent inhibition, N/A = ambiguous curve fits or EC50 greater than highest concentration tested (25 μM)
Method: Plots show the normalized percent inhibition (NPI) vs. concentration in log (μM).
(§1) Cell proliferation assays—Cells were plated in 96-well plates. Compounds were added the next morning, and cell proliferation was measured 48 hrs later with the […] 96 MTS assay (Promega) according to the manufacturer's instructions. Molecular screening of compounds on A2780 cells was performed by adding compounds the morning after plating in 384-well plates and measuring proliferation 72 hrs later with resazurin fluorescence. Normalized percent inhibition (NPI) was calculated with respect to fluorescence values obtained with DMSO negative control and doxorubicin (5 μM) positive control as NPI=100%*(DMSO−compound)/(DMSO−doxorubicin).
EC50 values were calculated from normalized percent inhibition data using non-linear curve fitting in PRISM software.

MCF-7 tumor cells = experiment: MCF-7 cell proliferation, MTS assay; format: cell-based, human; conditions: 2 days, compared with T cell division indices
Method: Representative results from one of two independent experiments.
as §1

T cells = experiment: Cytokine rescue of T cell proliferation from MEK inhibition; format: cell-based, human; conditions: IL-2 20 U/ml, IL-7 2 ng/ml, IL-15 10 ng/ml, IL-21 100 ng/ml, IL-27 50 ng/ml, ALT-803 35.7 ng/ml
Excerpt: Proliferation of CD8 T cells after 7 days is shown.
Proliferation of CD8 T cells is shown.
Reported are percentages of cells that proliferated with GDC0973 relative to vehicle treatment with the same cytokines after 7 days. Stains are not depicted.
T cell stimulation—For human T cell proliferation assays, peripheral blood lymphocytes were obtained by leukapheresis/elutriation and Miltenyi bead-purified and K562 cells expressing human CD32 were generated as previously described^41. K32 were γ-irradiated (100 Gy) and loaded with anti-CD3 (500 ng/ml, clone OKT3; eBioscience) plus anti-CD28 (500 ng/ml, clone 15E8; EMD Millipore) antibodies at room temperature for 10 minutes. PBMCs were labeled with CELLTRACE Violet stain (Invitrogen) according to the manufacturer's instructions and cocultured with loaded K32 cells at a 10:1 T cell to K32 ratio or activated with ConA (2 μg/ml, Sigma). Proliferation of stimulated T cells was determined 7 days later by FACS and Division Index was calculated using FlowJo™ software.

[2] = human T cells activated with ConA for 7 days, from normalized percent inhibition, N/A = ambiguous curve fits or EC50 greater than highest concentration tested (25 μM)

| Molecule | EC50 (human T cells; [2]) [nM] | rescue of T cell proliferation in the presence of the MEK inhibitors (T cells) | also measured |
| --- | --- | --- | --- |
| CN(C)CC[C@H](CSc1ccccc1)Nc1ccc(S(=O)(=O)NC(=O)c2ccc(N3CCN(Cc4ccccc4-c4ccc(Cl)cc4)CC3)cc2)cc1[N+](=O)[O-] [ABT737] | 61 | – | – |
| C[C@]1(O)C[C@@H](c2nc(-c3ccc4ccc(-c5ccccc5)nc4c3)c3c(N)nccn32)C1 [OSI906] | – | – | activity on T cells (in words) (human T cells; ConA-driven in vitro proliferation of human T cells): did not show any activity; activity on A2780 cells (in words) [1]: did not show any activity; MCF-7 tumor cell proliferation (MCF-7 tumor cells): reduction in tumor cell proliferation at concentrations that did not affect T cells |
| IL-15: Recombinant human IL-15 (Novoprotein); proliferative cytokine | – | able to rescue | – |
| Cn1c(=O)n(-c2ccc(C(C)(C)C#N)cc2)c2c3cc(-c4cnc5ccccc5c4)ccc3ncc21 [BEZ235] | 2.4 | – | EC50 [1]: 21 nM |
| CC(=O)c1c(C)c2cnc(Nc3ccc(N4CCNCC4)cn3)nc2n(C2CCCC2)c1=O [PD0332991] | 110 | – | – |
| Cc1[nH]c2ccccc2c1CCNCc1ccc(/C=C/C(=O)NO)cc1 [LBH589] | 25 | – | – |
| N#CC(=C(/N)Sc1ccccc1N)/C(C#N)=C(\N)Sc1ccccc1N [U0126] | – | – | EC50 (human T cells; Homo sapiens): 1920 nM; EC50 [1]: 12600 nM |
| IL-21: cytokine of the panel of T cell survival and/or proliferation cytokines | – | no effect | – |
| B1 | – | no effect | – |
| B2 | – | able to rescue | – |

— patent publication US10258625B2, “Method for treatment of metastatic and refractory cancers and tumors with an inducer that overcomes inhibition of T cell proliferation” (The Wistar Institute of Anatomy and Biology, priority 2015, dated 2019)
